For 19 compounds, MIC80 results are on record in patent publication US8940768B2, “Antifungal triazole derivatives” (Daewoong Pharmaceutical Co., Ltd., priority 2010, dated 2015).

Each structure is given as a SMILES string. In brackets after ≈: the same amount, converted by molar mass. Like-named read-outs stand apart in the source and are kept apart here.

One may read the MIC80 as an inhibitory concentration at the 80% level, which refers to growth in some studies and to a panel of isolates in others.

What all share (type): cell-based
For test [1], the system named is Candida albicans. Briefly: in vitro antifungal activity (MIC80), Candida albicans. The conditions noted are these: 80% growth inhibition vs negative control, RPMI 1640, read 24 hrs after application. As for the experimental part:
(§1) The compounds of the present invention were evaluated for inhibitory activity against yeast molds including Candida albicans, Candida glabrata, Candida krusei, Candida tropicalis, Candida parapsilosis, and Cryptococcus neoformans, and filamentous fungi including Aspergillus fumigatus, Trichophyton mentagrophytes (obtained from KCTC (Korean Collection for Type Cultures), and Trichophyton rubrum (obtained from KCCM (Korean Culture Center of Microorganisms). All the strains, but Trichophyton mentagrophytes and Trichophyton rubrum, were purchased from the ATCC (American Type Culture Collection).
(§2) Of the strains used in this test, Candida albicans, Candida glabrata, Candida krusei, Candida tropicalis, Candida parapsilosis, Trichophyton mentagrophytes and Trichophyton rubrum were inoculated into sabouraud dextrose agars (Difco, BD-0109), Cryptococcus neoformans into a yeast mold agar (YM agar, Difco, 271210), and Aspergillus fumigatus into a malt extract agar (Difco, 211220), before incubation at 35° C. for two to ten days.
(§3) From the agars on which the yeast molds were grown, single colonies were picked up, and each was sufficiently suspended in 5 mL of already prepared, 0.85% sterile saline. After correction of the absorbance to 0.108 at 530 nm, each of the suspensions was diluted to a ratio of 1:50 in an RPMI (Roswell park memorial institute) 1640 medium and then to a ratio of 1:20 to prepare an inoculum having a cell density of from 1.0×10^3 to 5.0×10^3CFU/mL. The cell density was adjusted into […]˜5.0×10^4 CFU/mL for Aspergillus fumigates and 0.4×10^4˜5.0×10^4 CFU/mL for both Trichophyton mentagrophytes and Trichophyton rubrum.
(§4) The antifungal agent samples were prepared by diluting the active compounds in an RPMI 1640 medium to a serial density of from 0.0156 to 32 μg/mL. In this context, dimethylsulfoxide (DMSO) was used as an excipient at a final concentration of 1% (v/v). The serial dilutions were aliquoted at a volume of 0.1 mL and applied to 0.1 mL of the aliquots of each inoculum, followed by incubation.
(§5) With the naked eyes, an observation was made of all of the yeast molds, but Cryptococcus neoformans 24 hrs after the application, Cryptococcus neoformans and Aspergillus fumigatus 48 hrs after the application, and Trichophyton mentagrophytes and Trichophyton rubrum five days after the application to examine whether the fungi grew or not. In addition, Alamarblue™ as used to determine the concentrations of the compounds of the present invention at which the growth of the microorganisms was 80% inhibited compared to that of the negative control. All experiments were performed in duplicate for each of the test concentration groups.

Test [2] relates to Aspergillus fumigatus. Briefly: in vitro antifungal activity (MIC80), Aspergillus fumigatus. The conditions noted are these: 80% growth inhibition vs negative control, RPMI 1640, read 48 hrs after application. On the procedure:
as §1, §2, §3, §4, §5

For test [3], the system named is Candida glabrata. Description: in vitro antifungal activity (MIC80), Candida glabrata. The following applies: Nakaseomyces glabratus, 24 h, read-out: Antifungal Activity (MIC80) C. grabrata. As for the experimental part: as §1, §2, §3, §4, §5
Test [4] has as its system Candida krusei. Briefly: in vitro antifungal activity (MIC80), Candida krusei. The following applies: Pichia kudriavzevii; 80% growth inhibition vs negative control; RPMI 1640; read 24 hrs after application; read-out: Antifungal Activity (MIC80) C. krusei. As for the experimental part: as §1, §2, §3, §4, §5
The subject of test [5] is Candida tropicalis. Description: in vitro antifungal activity (MIC80), Candida tropicalis. The conditions noted are these: 80% growth inhibition vs negative control, RPMI 1640, read 24 hrs after application, read-out: Antifungal Activity (MIC80) C. tropicalis. As for the experimental part: as §1, §2, §3, §4, §5
For test [6], the system named is Candida parapsilosis. Briefly: in vitro antifungal activity (MIC80), Candida parapsilosis. The following applies: Lodderomyces parapsilosis; 80% growth inhibition vs negative control; RPMI 1640; read 24 hrs after application; read-out: Antifungal Activity (MIC80) C. parapsilosis. As for the experimental part: as §1, §2, §3, §4, §5
The test system of test [7] is Trichophyton mentagrophytes. Briefly: in vitro antifungal activity (MIC80), Trichophyton mentagrophytes. The conditions noted are these: 120 h, 80% growth inhibition vs negative control, RPMI 1640, read five days after application. On the procedure:
as §1, §2, §3, §4, §5

The subject of test [8] is Trichophyton rubrum. Briefly: in vitro antifungal activity (MIC80), Trichophyton rubrum. The following applies: 120 h, 80% growth inhibition vs negative control, RPMI 1640, read five days after application. As for the experimental part: as §1, §2, §3, §4, §5
Setting [9] is: Table 1, read-out: Antifungal Activity (MIC80) C. albicans.
Where [10] appears, read: Table 2, read-out: Antifungal Activity (MIC80) Candida albicans.

Take `C[C@@H](N1CCC(Oc2ccc(Cl)cc2)CC1)[C@](O)(Cn1cncn1)c1ccc(F)cc1F` [Example 7, (2R,3R)-3-(4-(4-chlorophenoxy)piperidin-1-yl)-2-(2,4-difluorophenyl)-1-(1H-1,2,4-triazol-1-yl)butan-2-ol]: the figures for the MIC80 in test [1] (setting [9]) and in test [2] were ≤ 0.015 µg/mL and ≤ 0.125 µg/mL, respectively.
For `C[C@@H](N1CCC(Oc2ccc(C(F)(F)F)cc2)CC1)[C@](O)(Cn1cncn1)c1ccc(F)cc1F` [Example 13, (2R,3R)-2-(2,4-difluorophenyl)-1-(1H-1,2,4-triazol-1-yl)-3-(4-(4-(trifluoromethyl)phenoxy)piperidin-1-yl)butan-2-ol] the same measures were ≤ 0.015 µg/mL and 1 µg/mL (≈ 2.01 µM).
`C[C@@H](N1CCC(Nc2ccc(F)cn2)CC1)[C@](O)(Cn1cncn1)c1ccc(F)cc1F` [Example 58, (2R,3R)-2-(2,4-difluorophenyl)-3-(4-((5-fluoropyridin-2-yl)amino)piperidin-1-yl)-1-(1H-1,2,4-triazol-1-yl)butan-2-ol]: the MIC80 in test [1] (setting [9]) was ≤ 0.015 µg/mL; in test [3], 1 µg/mL (≈ 2.24 µM); in test [4] it was 0.062 µg/mL (≈ 0.139 µM); in test [5], 0.125 µg/mL (≈ 0.28 µM); in test [6] it was 0.062 µg/mL (≈ 0.139 µM); in test [2] it was 0.125 µg/mL (≈ 0.28 µM). The MIC80 in test [7] and in test [8] was ≤ 0.125 µg/mL in each case.
`C[C@@H](N1CCC(Nc2ncc(F)cn2)CC1)[C@](O)(Cn1cncn1)c1ccc(F)cc1F` [Example 63, (2R,3R)-2-(2,4-difluorophenyl)-3-(4-((5-fluoropyrimidin-2-yl)amino)piperidin-1-yl)-1-(1H-1,2,4-triazol-1-yl)butan-2-ol]: the MIC80 in test [1] (setting [9]) is ≤ 0.015 µg/mL; in test [3], 1 µg/mL (≈ 2.23 µM); in test [4], ≤ 0.062 µg/mL; in test [2], 0.25 µg/mL (≈ 0.559 µM); in test [7], ≤ 0.004 µg/mL; in test [8], 0.015 µg/mL (≈ 0.0335 µM).
In the case of `C[C@@H](OC1CCN(c2ncc(F)cn2)CC1)[C@](O)(Cn1cncn1)c1ccc(F)cc1F` [Example 118, (2R,3R)-2-(2,4-difluorophenyl)-3-((1-(5-fluoropyrimidin-2-yl)piperidin-4-yl)oxy)-1-(1H-1,2,4-triazol-1-yl)butan-2-ol], in test [1] (setting [10]), the MIC80 is ≤ 0.015 µg/mL.
On the same count and under the same terms, as for `C[C@@H](OC1CCN(c2ncc(Br)cn2)CC1)[C@](O)(Cn1cncn1)c1ccc(F)cc1F` [Example 120, (2R,3R)-3-((1-(5-bromopyrimidin-2-yl)piperidin-4-yl)oxy)-2-(2,4-difluorophenyl)-1-(1H-1,2,4-triazol-1-yl)butan-2-ol], the figure is ≤ 0.015 µg/mL.
With `C[C@@H](NC1CCN(c2ccccc2)CC1)[C@](O)(Cn1cncn1)c1ccc(F)cc1F` [Example 123, (2R,3R)-2-(2,4-difluorophenyl)-3-((1-phenylpiperidin-4-yl)amino)-1-(1H-1,2,4-triazol-1-yl)butan-2-ol], the MIC80 in test [1] (setting [10]) was ≤ 0.015 µg/mL.
For `C[C@@H](NC1CCN(c2ccc(C(F)(F)F)cc2)CC1)[C@](O)(Cn1cncn1)c1ccc(F)cc1F` [Example 134, (2R,3R)-2-(2,4-difluorophenyl)-1-(1H-1,2,4-triazol-1-yl)-3-((1-(4-(trifluoromethyl)phenyl)piperidin-4-yl)amino)butan-2-ol], the MIC80 in test [1] (setting [10]) is ≤ 0.015 µg/mL.
With `C[C@@H](NC1CCN(c2ccc(C#N)cc2)CC1)[C@](O)(Cn1cncn1)c1ccc(F)cc1F` [Example 137, 4-(4-(((2R,3R)-3-(2,4-difluorophenyl)-3-hydroxy-4-(1H-1,2,4-triazol-1-yl)butan-2-yl)amino)piperidin-1-yl)benzonitrile], the MIC80 in test [1] (setting [10]) was ≤ 0.015 µg/mL.
Consider `C[C@@H](NC1CCN(c2ccc(F)cn2)CC1)[C@](O)(Cn1cncn1)c1ccc(F)cc1F` [Example 146, (2R,3R)-2-(2,4-difluorophenyl)-3-((1-(5-fluoropyridin-2-yl)piperidin-4-yl)amino)-1-(1H-1,2,4-triazol-1-yl)butan-2-ol], for which, in test [1] (setting [10]), the MIC80 was ≤ 0.015 µg/mL.
Still for that read-out and setting: as for `C[C@@H](NC1CCN(c2ccc(Cl)cn2)CC1)[C@](O)(Cn1cncn1)c1ccc(F)cc1F` [Example 147, (2R,3R)-3-((1-(5-chloropyridin-2-yl)piperidin-4-yl)amino)-2-(2,4-difluorophenyl)-1-(1H-1,2,4-triazol-1-yl)butan-2-ol], the figure is ≤ 0.015 µg/mL.
Take `Cc1cc(C(F)(F)F)cnc1N1CCC(N[C@H](C)[C@](O)(Cn2cncn2)c2ccc(F)cc2F)CC1` [Example 148, (2R,3R)-2-(2,4-difluorophenyl)-3-((1-(3-methyl-5-(trifluoromethyl)pyridin-2-yl)piperidin-4-yl)amino)-1-(1H-1,2,4-triazol-1-yl)butan-2-ol]: the MIC80 in test [1] (setting [9]) is ≤ 0.015 µg/mL; in test [3], 0.25 µg/mL (≈ 0.49 µM); in test [4], ≤ 0.062 µg/mL; in test [2] it was 1 µg/mL (≈ 1.96 µM).
`C[C@@H](NC1CCN(c2ncccn2)CC1)[C@](O)(Cn1cncn1)c1ccc(F)cc1F` [Example 149, (2R,3R)-2-(2,4-difluorophenyl)-3-((1-(pyrimidin-2-yl)piperidin-4-yl)amino)-1-(1H-1,2,4-triazol-1-yl)butan-2-ol]: the MIC80 in test [1] (setting [10]) was ≤ 0.015 µg/mL.
Regarding `C[C@@H](NC1CCN(c2ncc(F)cn2)CC1)[C@](O)(Cn1cncn1)c1ccc(F)cc1F` [Example 151, (2R,3R)-2-(2,4-difluorophenyl)-3-((1-(5-fluoropyrimidin-2-yl)piperidin-4-yl)-amino)-1-(1H-1,2,4-triazol-1-yl)butan-2-ol], the MIC80 was ≤ 0.015 µg/mL in test [1] (setting [9]); 1 µg/mL (≈ 2.23 µM) in test [3]; 0.25 µg/mL (≈ 0.559 µM) in test [4]; 0.25 µg/mL (≈ 0.559 µM) in test [5]; 0.125 µg/mL (≈ 0.279 µM) in test [6]; 1 µg/mL (≈ 2.23 µM) in test [2]. Besides, the values for the MIC80 in test [7] and in test [8] were ≤ 0.004 µg/mL and 0.015 µg/mL (≈ 0.0335 µM), respectively.
As to `C[C@@H](N(C)C1CCN(c2ccccc2)CC1)[C@](O)(Cn1cncn1)c1ccc(F)cc1F` [Example 155, (2R,3R)-2-(2,4-difluorophenyl)-3-(methyl(1-phenylpiperidin-4-yl)amino)-1-(1H-1,2,4-triazol-1-yl)butan-2-ol], the MIC80 in test [1] (setting [10]) was ≤ 0.015 µg/mL.
For `C[C@@H](N(C)C1CCN(c2ccc(F)cc2)CC1)[C@](O)(Cn1cncn1)c1ccc(F)cc1F` [Example 158, (2R,3R)-2-(2,4-difluorophenyl)-3-((1-(4-fluorophenyl)piperidin-4-yl)(methyl)amino)-1-(1H-1,2,4-triazol-1-yl)butan-2-ol], the MIC80 in test [1] (setting [10]) is ≤ 0.015 µg/mL.
Still for that read-out and setting: the same measure for `C[C@@H](N(C)C1CCN(c2ccc(Cl)cc2)CC1)[C@](O)(Cn1cncn1)c1ccc(F)cc1F` [Example 161, (2R,3R)-3-((1-(4-chlorophenyl)piperidin-4-yl)(methyl)amino)-2-(2,4-difluorophenyl)-1-(1H-1,2,4-triazol-1-yl)butan-2-ol]: ≤ 0.015 µg/mL; for `C[C@@H](N(C)C1CCN(c2ccc(C(F)(F)F)cc2)CC1)[C@](O)(Cn1cncn1)c1ccc(F)cc1F` [Example 167, (2R,3R)-2-(2,4-difluorophenyl)-3-(methyl(1-(4-(trifluoromethyl)phenyl)piperidin-4-yl)amino)-1-(1H-1,2,4-triazol-1-yl)butan-2-ol]: ≤ 0.015 µg/mL; for `C[C@@H](N(C)C1CCN(c2ccc(C#N)cc2)CC1)[C@](O)(Cn1cncn1)c1ccc(F)cc1F` [Example 170, 4-(4-(((2R,3R)-3-(2,4-difluorophenyl)-3-hydroxy-4-(1H-1,2,4-triazol-1-yl)butan-2-yl)(methyl)amino)piperidin-1-yl)benzonitrile]: ≤ 0.015 µg/mL.
